Laboratory results reported in article PMC12587390, “Metabolite Identification Data in Drug Discovery, Part 1: Data Generation and Trend Analysis” (Molecular Pharmaceutics, 2025).
≈ marks a conversion by molar mass, not a printed value.

Columns and labels:
human hepatocytes [1] = test: Metabolite identification in human hepatocyte incubations; type: in vitro ADME; details: 4 μM
Procedure: (§1) Cryopreserved, pooled primary human, dog, and rat hepatocytes were obtained from BioIVT (previously Celsis IVT). L-15 Leibovitz buffer was placed in a water bath to reach 37 °C. Cryopreserved hepatocytes were transferred from a −150 °C freezer on dry ice and immediately immersed in a preheated water bath kept at 37 °C for thawing. When only a small ice crystal could be seen, the content was emptied into a 50 mL falcon tube filled with warm buffer (maximum four vials/falcon tube). The suspension was centrifuged at room temperature for 3 min at 50 g. The supernatant was removed, the pellet was resuspended in a small volume of buffer, and the falcon tube was refilled with buffer, followed by another centrifugation to wash away any remaining storage buffer. Thereafter, the supernatant was removed, and the pellet was dissolved in a small volume of buffer and diluted to a concentration of about 3–5 million cells/mL. After counting the cells using a Casy cell counter, the suspension was diluted to 1 million viable cells/mL and kept at room temperature until use. The viability cutoff was 80%.
(§2) An aliquot of 245 μL of hepatocyte suspension was added to a round-bottomed 96-deep-well plate using a manual multipipette. The deep-well plate was preincubated for 15 min at 37 °C and 13 Hz. Substrate solutions of the assay compounds were prepared by the robot in a 96-well plate as follows: 4 μL of 10 mM DMSO stock solution, followed by the addition of 96 μL of ACN:water (1:1, v:v) and mixing by shaking. 50 μL from each well were transferred to and combined in a new plate, resulting in 100 μL per well and a dilution of 1:1.
(§3) The reaction was started by the addition of 5 μL of 200 μM substrate solution to the preheated hepatocyte suspension, resulting in a final substrate concentration of 4 μM (0.04% DMSO, <0.5% ACN). The incubation was continued at 37 °C and 13 Hz. At each time point (0, 40, and 120 min), a 50 μL sample was taken out and quenched in 200 μL of cold ACN:methanol (1:1, v:v), and the stopped plates were centrifuged for 20 min (set at 4 °C and 4000 g). The supernatant was diluted by taking 50 μL and mixing it with 100 μL of water. Incubations of the positive controls, albendazole and dextromethorphan, were performed in parallel as described above.
(§4) Structural characterization of metabolites and metabolite profiling were performed using the Waters Acquity ultraperformance liquid chromatography (UPLC) system fitted to a Waters High-Resolution Mass Spectrometer (MS) (Xevo G2-S, Synapt G2-Si, or a Synapt XS MS). The Waters MS systems, equipped with an electrospray ionization (ESI) source, were operated in positive-ion sensitivity mode over a mass range m/z 50–1200 and in negative-ion sensitivity mode over a mass range m/z of 50–1200.
(§5) The reversed-phase gradient elution was performed on an Acquity U(H)-PLC BEH C18 column (2.1 × 100 mm, 1.7 μm, Waters) set at 45 °C. The mobile phases consisted of 0.1% FA in water (A) and ACN (B). […] The injection volume was 2 μL. The MS settings were optimized for the respective MS instrument. […] A scan time of 0.1 s was used, and data were acquired in centroid mode. Collision energy was set to “off” for the low-energy function, whereas in the high-energy MSe functions, the collision energies were typically ramped from 15 to 35 V in the trap cell, with constant collision energies of 20 V in their transfer cells. Cone voltage was set to 25 V for both low- and high-energy functions. For dedicated MS/MS, the m/z of the molecular ion was selected in the quadrupole, and the mass range for fragmentation analysis was typically set between 50 and 1200. The collision energies were either the same as those stated above for MSe data generation or optimized for a specific metabolite.

physchem [2] = details: pH 7.4
Procedure: (§9) LogD was measured using the traditional shake-flask method, with up to ten compounds pooled together. The compounds were dissolved in 10 mM sodium phosphate buffer adjusted to pH 7.4 and an octanol phase (both phases were mixed for 2 h at room temperature). The concentrations in both phases were analyzed by liquid chromatography and quantitative tandem mass spectrometry (LC-MS/MS), and distribution coefficients were determined.

physchem [3] = details: 25 °C, pH 7.4, aqueous buffer, thermodynamic from solid
Procedure: (§10) Solubility was measured as the thermodynamic solubility using a shake-flask approach. Here, DMSO was evaporated from the compound stock solution as the first step. The “dried” compounds were then placed into 10 mM sodium phosphate buffer, adjusted to pH 7.4, and equilibrated at 25 °C for 24 h. The samples were centrifuged, and the solution was analyzed by LC-MS/MS to determine the amount of compound in solution.

human hepatocytes [4] = test: Metabolic stability in human hepatocytes (HH CLint); type: in vitro ADME; details: 37 °C, 2 h
Procedure: Metabolic stability in human hepatocytes (HH CLint) was measured by incubating the cells with the test compound at 37 °C for 2 h. An aliquot of the mixture was taken at typically nine defined time points, and the metabolic reaction was stopped by adding ACN. The samples were centrifuged, and the supernatant was analyzed via LC-MS/MS. Intrinsic clearance (CLint) was calculated from the disappearance rate of the parent compound. ,

[5] = Thermodynamic solubility, shake-flask; details: 10 mM sodium phosphate buffer, 25 °C, pH 7.4, aqueous buffer, thermodynamic from solid
Procedure: as §10

[6] = LogD, shake-flask method (octanol / buffer pH 7.4); details: octanol/10 mM sodium phosphate buffer
Procedure: as §9

[7] = MetID on in vivo rat plasma samples; parameters: species or system rat (Han Wistar); details: after Cmpd 28; sampled at 4 h
Procedure: (§6) The workup procedure could vary somewhat depending on the compound and dose, but the general procedure was as follows: Two volumes of ACN/methanol (1:1, v:v) were added to the plasma samples and vortex-mixed to precipitate the proteins. Thereafter, the samples were centrifuged for 10 min (at 10,000 g and 4 °C), and the supernatants were diluted with one volume of water. The urine samples were diluted with one volume of ACN/methanol (1:1, v:v) and centrifuged for 10 min (at 10,000 g and 4 °C), followed by a 1:1 dilution with water.
as §4
(§7) The reversed-phase gradient elution was performed on an Acquity U(H)-PLC BEH C18 column (2.1 × 100 mm, 1.7 μm, Waters) set at 45 °C. The mobile phases consisted of 0.1% FA in water (A) and ACN (B). […] The injection volume was 2 μL. The MS settings were optimized for the respective MS instrument. […] A scan time of 0.1 s was used, and data were acquired in centroid mode. Collision energy was set to “off” for the low-energy function, whereas in the high-energy MSe functions, the collision energies were typically ramped from 15 to 35 V in the trap cell, with constant collision energies of 20 V in their transfer cells. Cone voltage was set to 25 V for both low- and high-energy functions. For dedicated MS/MS, the m/z of the molecular ion was selected in the quadrupole, and the mass range for fragmentation analysis was typically set between 50 and 1200. The collision energies were either the same as those stated above for MSe data generation or optimized for a specific metabolite. Tune parameters for all MS analyses consisted of a capillary energy of 0.5 kV, sampling cone energy of 40 V, source temperature of 150 °C, desolvation temperature of 550 °C, cone gas flow of 0 L/h, desolvation gas flow of 1200 L/h, and nebulizer pressure of 6.5 bar.
(§8) Metabolite identification was conducted by processing the generated data using the MetaboLynx XS browser (Waters), MassMetaSite and the web interface ONIRO (Mass Analytica). […] Accurate masses of metabolites were determined from the protonated molecules in the positive ESI time-of-flight MS (ESI–TOF–MS) mode and from the deprotonated molecules in the negative ESI–TOF–MS mode. […] For those metabolites where no MS/MS data could be acquired, identification was based on the accurate mass of the molecular ion and the fragmentation seen in the MSe spectrum. Relative amounts of detected metabolites were calculated as % of the total MS area by dividing the MS peak area for the metabolite (or parent compound) by the combined MS peak area for the parent compound and all identified metabolites.

rat hepatocytes = test: Metabolite identification in rat hepatocyte incubations; type: in vitro ADME; details: Cmpd 28 incubated for 120 min, 4 μM
Procedure: as §1, §2
The reaction was started by the addition of 5 μL of 200 μM substrate solution to the preheated hepatocyte suspension, resulting in a final substrate concentration of 4 μM (0.04% DMSO, <0.5% ACN). The incubation was continued at 37 °C and 13 Hz. At each time point (0, 40, and 120 min), a 50 μL sample was taken out and quenched in 200 μL of cold ACN:methanol (1:1, v:v), and the stopped plates were centrifuged for 20 min (set at 4 °C and 4000 g). […]

dog hepatocytes = test: Metabolite identification in dog hepatocyte incubations; type: in vitro ADME; details: Cmpd 28 incubated for 120 min, 4 μM
Procedure: as §1, §2, §3, §4, §5

[8] = MetID on in vivo dog samples (plasma, urine); parameters: species or system dog (beagles); details: after Cmpd 28; sampled at 3 h and 30 min
Procedure: as §6, §4, §7, §8

| Structure (SMILES) | Metabolites / metabolic pathways identified (human hepatocytes [1]) | logD (physchem [2]) | solubility (physchem [3]) | HH CLint (human hepatocytes [4]) | solubility at 24 h [5] | logD at 2 h [6] | % of the total MS area, Rat Plasma (Female) [7] | % of the total MS area, Rat Plasma (Male) [7] | % of the total MS area, Rat Hepatocytes (Mixed gender) (rat hepatocytes) | % of the total MS area, Dog Hepatocytes (Mixed gender) (dog hepatocytes) | % of the total MS area, Dog Plasma (Female) [8] |
| --- | --- | --- | --- | --- | --- | --- | --- | --- | --- | --- | --- |
| COc1cc(NC(=O)C2CCCCC2C(=O)c2ccc(-c3cc[nH]n3)cc2)ncn1 (stereo not drawn) [Cmpd 17, COc1cc(NC(=O)[C@@H]2CCCC[C@H]2C(=O)c2ccc(-c3cc[nH]n3)cc2)ncn1] | ketone reduction, aliphatic hydroxylations, N-glucuronidation, amide hydrolysis, and combinations thereof | 3.9 | 22 µM (≈ 8.92 µg/mL) | 22 μL/min/1E6 | – | – | – | – | – | – | – |
| Cn1ncc(NC(=O)C2CCCCC2C(=O)c2ccc(-c3cc[nH]n3)cc2)c1C(N)=O (stereo not drawn) [Cmpd 18, Cn1ncc(NC(=O)[C@@H]2CCCC[C@H]2C(=O)c2ccc(-c3cc[nH]n3)cc2)c1C(N)=O] | the only metabolite identified was the alcohol formed after the reduction of a ketone | – | – | 4 μL/min/1E6 | 564 µM (≈ 237 µg/mL) | 2 | – | – | – | – | – |
| Cn1ncc(NC(=O)C2CCCCC2C(=O)c2ccc(-c3cc[nH]n3)cc2)c1C(F)(F)F (stereo not drawn) [Cmpd 25, Cn1ncc(NC(=O)[C@@H]2CCCC[C@H]2C(=O)c2ccc(-c3cc[nH]n3)cc2)c1C(F)(F)F] | amide hydrolysis was not detected | 3.6 | 80 µM (≈ 35.6 µg/mL) | 7 μL/min/1E6 | – | – | – | – | – | – | – |
| Cn1cc(NC(=O)C2CCCCC2C(=O)c2ccc(-c3cc[nH]n3)cc2)c(C(F)F)n1 (stereo not drawn) [Cmpd 27, Cn1cc(NC(=O)[C@@H]2CCCC[C@H]2C(=O)c2ccc(-c3cc[nH]n3)cc2)c(C(F)F)n1] | amide hydrolysis was not detected | – | – | 9 μL/min/1E6 | 99 µM (≈ 42.3 µg/mL) | 3 | – | – | – | – | – |
| Cc1nn(C)cc1NC(=O)[C@@H]1CCCC[C@H]1C(=O)c1ccc(-c2cc(CO)[nH]n2)cc1 [Cmpd 28 M4] | – | – | – | – | – | – | not seen | not seen | 3% | 2% | 1% |
